*1 amine or outer side, *2 acyl side, *3 side chain or, on linkers, in order; H or OH if unused. Where a SMILES comes first, the peptide text is derived from it. The star is where a group is joined. X2 = CC1=C(CCCN*)C2=C(C)C3(CC3)[C@@](C)(O)C(=O)C2=C1; Morpholide = C1CN(*)CCO1; CO = O=C([*:1])[*:2]
Legend:
[1] = system: NCI 60 cell line panel; details: cited from earlier work; for Mean TGI cytostatic / GI50: mean over NCI DTP 60 cell lines; for GI50: read-out: Mean GI50 inhibition; for CC50: human, nci 60 cell lines
[2] = system: MCF7 (ER positive); test: Cytotoxicity, 2 hour exposure, cells expressing the estrogen receptor; assay type: cell-based; details: Homo sapiens, N=3, mean ± SD
From the text: (§1) MCF7 over express estrogen alpha-receptors.
(§2) MCF7 cells over express estrogen alpha-receptors.
(§3) The foregoing description of embodiments of the methods, systems, and components of the present invention has been provided for the purposes of illustration and description. It is not intended to be exhaustive or to limit the invention to the precise forms disclosed. Many modifications and variations will be apparent to one of ordinary skill in the relevant arts. For example, steps performed in the embodiments of the invention disclosed can be performed in alternate orders, certain steps can be omitted, and additional steps can be added. The embodiments were chosen and described in order to best explain the principles of the invention and its practical application, thereby enabling others skilled in the art to understand the invention for various embodiments and with various modifications that are suited to the particular used contemplated. Other embodiments are possible and are covered by the invention. Such embodiments will be apparent to persons skilled in the relevant art(s) based on the teachings contained herein. The breadth and scope of the present invention should not be limited by any of the above-described exemplary embodiments, but should be defined only in accordance with the following claims and their equivalents.

[3] = system: HT29 (ER Negative); test: Cytotoxicity, 2 hour exposure, cells not expressing the estrogen receptor; assay type: cell-based; details: Homo sapiens, HT-29, N=3, mean ± SD
From the text: as §1, §2, §3

[4] = system: Prostate LnCAP (positive PSA); test: Activity of PSA cleavable analogs against PSA positive cell line, 48 hour exposure; assay type: cell-based; details: Homo sapiens, N=3, mean ± SD
[5] = system: Prostate DuPro (trace PSA); test: Activity of PSA cleavable analogs against trace PSA cell line, 48 hour exposure; assay type: cell-based; details: Homo sapiens, N=3, mean ± SD
[6] = system: Prostate PC3 (negative PSA); test: Activity of PSA cleavable analogs against PSA negative cell line, 48 hour exposure; assay type: cell-based; details: N=3, mean ± SD
[7] = system: NCI 60 cell line panel; test: NCI DTP 60 cell line screen assay
From the text: An ADC is engulfed by a tumor cell, transported to the endosomes (pH < 6.0) and then into the lysozomes (pH < 4). […] 4) Cancer cells can become resistant to various toxins and drugs through the development of what is termed multi-drug resistance. This process is known to occur through several different mechanisms.

[8] = system: 8392B cell line; test: cells; assay type: cell-based
[9] = system: MV522 cell line; test: 48 hour exposure, growth or viability by Trypan Blue Exclusion assay, target cell line; assay type: cell-based; details: read-out: Mean IC50 value (nM) ± SD, N=3 unless otherwise indicated
[10] = system: 8392B cell line; test: Two hour toxicity: inhibition of DNA synthesis activity, nontarget cell line; assay type: cell-based; details: read-out: Mean IC50 value (nM) ± SD, N=3 unless otherwise indicated; 8392B Nontarget Cell Line; 2 hr exposure; 8392B nontarget cell line, 2 hr exposure; mean ± SD, N=3 unless otherwise indicated
[11] = system: MV522 cell line; test: cells; assay type: cell-based; details: read-out: Mean IC50 value (nM) ± SD, N=3 unless otherwise indicated, MV522 Target Cell Line, 2 hr exposure
[12] = system: Prostate LnCAP (positive PSA); test: Activity of PSA cleavable analogs against PSA positive cell line, 48 hour exposure; assay type: cell-based; details: N=3, mean ± SD
[13] = system: Prostate PC3 (negative PSA); test: Activity of PSA cleavable analogs against PSA negative cell line, 48 hour exposure; assay type: cell-based; details: N=3, mean ± SD; remark: listed apart in the source
[14] = system: Prostate DuPro (trace PSA); test: Activity of PSA cleavable analogs against trace PSA cell line, 48 hour exposure; assay type: cell-based; details: N=3, mean ± SD
[15] = read-out: Mean IC50 value (nM) ± SD, N=3 unless otherwise indicated, 8392B Nontarget Cell Line, 48 hr exposure, 8392B nontarget cell line, mean ± SD, N=3 unless otherwise indicated
[16] = MV522 target cell line, mean ± SD, N=3 unless otherwise indicated

Row | Molecule | Mean TGI cytostatic [1] | GI50 [1] | IC50 [9] | IC50 [10] | IC50 [8, 15] | IC50 [11, 16] | also measured
1 | CO[C@@H]1[C@H](O)CC[C@]2(CO2)[C@H]1[C@@]1(C)O[C@@H]1CC=C(C)C [Fumagillol] | 9,850 nM | 6130 nM | – | – | – | – | –
2 | CC1=C2C(=CC(C)(C)[C@@H]2O)C(=O)[C@](C)(O)C12CC2 [Illudin M] | 20 nM | 3 nM | – | – | – | – | CC50 [1]: 291 nM; IC50 [2]: 480 ± 130 nM; IC50 [3]: 520 ± 100 nM
3 | CC1=C2C(=C[C@@](C)(CO)[C@@H]2O)C(=O)[C@](C)(O)C12CC2 [Illudin S] | 64 nM | 10 nM | – | – | – | – | IC50 [4]: 15 ± 3 nM; IC50 [5]: 11 ± 3 nM; IC50 [6]: 16 ± 5 nM
4 | COc1cc2cc(c1Cl)N(C)C(=O)C[C@H](OC(=O)[C@H](C)N(C)C(C)=O)[C@]1(C)O[C@H]1[C@H](C)[C@@H]1C[C@@](O)(NC(=O)O1)[C@H](OC)/C=C/C=C(\C)C2 [Maytansine] | 318 nM | – | – | – | – | – | –
5 | C=C1C[C@H]2C=Nc3cc(OCCCOc4cc5c(cc4OC)C(=O)N4CC(=C)C[C@H]4C=N5)c(OC)cc3C(=O)N2C1 [Pyrrolobenzodiazepines] | 302 nM | 7 nM | – | – | – | – | –
6 | CC[C@H](C)[C@H](NC(=O)[C@H]1CCCCN1C)C(=O)N(COC(=O)CC(C)C)[C@H](C[C@@H](OC(C)=O)c1nc(C(=O)N[C@@H](Cc2ccc(O)cc2)C[C@H](C)C(=O)O)cs1)C(C)C [Tubulysin A] | 1,318 nM | 12 nM | – | – | – | – | CC50 [1]: > 10000 nM
7 | CC(=O)OCC1(C)C=C2C(=O)[C@](C)(O)C3(CC3)C(C)=C2C1O (stereo partly shown) [compound 159] | – | – | 120 ± 10 nM | 13700 nM | – | – | MDR Activity ([7]; […]): Yes; Cytotoxicity ([7]; ability to actually kill tumor cells versus only inhibiting growth): Yes; IC50 ([8]; 48 h, read-out: Mean IC50 value (nM) ± SD, N=3 unless otherwise indicated, 8392B Nontarget Cell Line, 48 hr exposure): < 10 nM; IC50 ([11]; MV522, 2 h): 2700 ± 400 nM
8 | CC(=O)N1C[C@H](O)C[C@H]1C(=O)N[C@@H](CO)C(=O)N[C@@H](CO)C(=O)N[C@H](C(=O)N[C@@H](CCC(N)=O)C(=O)N[C@@H](CO)C(=O)N[C@@H](CO)C(=O)N1CCC[C@H]1C(=O)O[C@@H]1C2=C(C)C3(CC3)[C@@](C)(O)C(=O)C2=C[C@@]1(C)CO[Si](C)(C)C(C)(C)C)C1CCCCC1 [compound 215] | – | – | 490 ± 120 nM | – | – | – | IC50 [12]: > 20000 nM
9 | CC(=O)N1C[C@H](O)C[C@H]1C(=O)N[C@@H](CO)C(=O)N[C@@H](CO)C(=O)N[C@H](C(=O)N[C@@H](CCC(N)=O)C(=O)N[C@@H](CO)C(=O)N[C@@H](CO)C(=O)N1CCC[C@H]1C(=O)O[C@@H]1C2=C(C)C3(CC3)[C@@](C)(O)C(=O)C2=CC1(C)C)C1CCCCC1 [compound 216] | – | – | – | – | – | – | IC50 [13]: 190 ± 10 nM; IC50 [12]: 190 ± 30 nM; IC50 [14]: 280 ± 60 nM
10 | CC1=C(CCCNC(=O)[C@H](CC(C)C)NC(=O)[C@H](CCC(N)=O)NC(=O)[C@H](CC(C)C)NC(=O)[C@H](CCCCN)NC(=O)[C@H](CO)NC(=O)[C@H](CO)NC(=O)[C@H](Cc2c[nH]cn2)NC(=O)N2CCOCC2)C2=C(C)C3(CC3)[C@@](C)(O)C(=O)C2=C1 [compound 221] ({Morpholide-CO}-HSSKLQL-X2) | – | – | 2500 nM | > 21000 nM | > 21000 nM | > 21000 nM | IC50 [13]: > 21000 nM; IC50 [12]: 800 ± 100 nM; IC50 [14]: 13000 nM
11 | CC1=CC2=C(C)C3(CC3)C(C)(O)C(=NO)C2=C1 (stereo not shown) [compound 224] | – | – | > 130000 nM | > 200000 nM | > 130000 nM | > 200000 nM | –
12 | CC1=C2C(=CC(C)(O)C2O)C(=NO)C(C)(O)C12CC2 (stereo not shown) [compound 225] | – | – | 55000 nM | > 350000 nM | 33000 nM | 47000 nM | –
13 | CCCCCCCC/C=C/CCCCCCCC(=O)OCC1=C(C)C=C2C(=O)[C@](C)(O)C3(CC3)C(C)=C21 [compound 226] | – | – | > 59000 nM | > 59000 nM | > 59000 nM | > 59000 nM | –
14 | CC(=O)OCC1(C)C(OC(C)=O)C2=C(C)C3(CC3)C(C)(O)C(=O)C23CC31 (stereo not shown) [compound 250] | – | – | 137000 nM | > 275000 nM | 137000 nM | 99000 nM | –
15 | CC1=C(Cn2ccc(=O)[nH]c2=O)C2=C(C)C3(CC3)[C@@](C)(O)C(=O)C2=C1 [compound 289] | – | – | 530 ± 150 nM | > 290000 nM | > 8800 nM | 51 ± 4 nM | –
16 | Halichondrin B | 199 nM | – | – | – | – | – | CC50 [1]: > 1000 nM
